Series [1] deals with Abutilon. Nature of the series: Post-emergence test/greenhouse. In kind it is in vivo. As to conditions: 1000 g of ai./ha, test plants 5-15 cm, rated after three weeks vs untreated control, 0%=no effect, 100%=total destruction. How it is done:
(§1) Solvent: 5 parts by weight of acetone
(§2) Emulsifier: 1 part by weight of alkylaryl polyglycol ether
(§3) To produce a suitable preparation of active compound, I part by weight of active compound is mixed with the stated amount of solvent, the stated amount of emulsifier is added and the concentrate is diluted with water to the desired concentration.
(§4) Test plants having a height of 5-15 cm are sprayed with the preparation of active compound such that the particular amounts of active compound desired are applied per unit area. The concentration of the spray liquor is chosen so that the particular amounts of active compound desired are applied in 1000 l of water/ha.
(§5) After three weeks, the degree of damage to the plants is rated in % damage in comparison with the development of the untreated control.
(§6) 0%=no effect (like untreated control)

Series [2] relates to Galium. Nature of the series: Post-emergence test/greenhouse. Format: in vivo. Conditions: 1000 g of ai./ha, test plants 5-15 cm, rated after three weeks vs untreated control, 0%=no effect, 100%=total destruction. How it is done:
as §1, §2, §3, §4, §5, §6

Series [3] deals with Amaranthus. Nature of the series: Post-emergence test/greenhouse. Format: in vivo. Conditions: 1000 g of ai./ha, test plants 5-15 cm, rated after three weeks vs untreated control, 0%=no effect, 100%=total destruction. How it is done:
as §1, §2, §3, §4, §5, §6

Series [4] has as its system Alopecurus. Nature of the series: Post-emergence test/greenhouse. In kind it is in vivo. As to conditions: 1000 g of ai./ha, test plants 5-15 cm, rated after three weeks vs untreated control, 0%=no effect, 100%=total destruction. How it is done:
as §1, §2, §3, §4, §5, §6

Series [5] deals with Sinapis. In words: Post-emergence test/greenhouse. Format: in vivo. Conditions: 1000 g of ai./ha, test plants 5-15 cm, rated after three weeks vs untreated control, 0%=no effect, 100%=total destruction. How it is done:
as §1, §2, §3, §4, §5, §6

Series [6] relates to weeds. In words: Post-emergence test, overall action. Format: in vivo. Conditions: result in words. How it is done: as §1, §2, §3, §4, §5, §6
For series [7], the system named is weeds. Nature of the series: Pre-emergence test, overall action. In kind it is in vivo. Conditions: result in words. How it is done: as §1, §2
(§7) To produce a suitable preparation of active compound, 1 part by weight of active compound is mixed with the stated amount of solvent, the stated amount of emulsifier is added and the concentrate is diluted with water to the desired concentration.
(§8) Seeds of the test plants are sown in normal soil. After about 24 hours, the soil is sprayed with the preparation of active compound such that the particular amounts of active compound desired are applied per unit area. The concentration of the spray liquor is chosen so that the particular amounts of active compound desired are applied in 1000 l of water/ha.
as §5, §6

The subject of series [8] is Abutilon. Nature of the series: Pre-emergence test (greenhouse). In kind it is in vivo. As to conditions: 1000 g of ai./ha, rated after three weeks vs untreated control, 0%=no effect, 100%=total destruction. How it is done: as §1, §2, §7, §8, §5, §6
Series [9] has as its system Galium. Nature of the series: Pre-emergence test (greenhouse). In kind it is in vivo. As to conditions: 1000 g of ai./ha, rated after three weeks vs untreated control, 0%=no effect, 100%=total destruction. How it is done:
as §1, §2, §7, §8, §5, §6

Series [10] relates to Amaranthus. Nature of the series: Pre-emergence test (greenhouse). Format: in vivo. Conditions: 1000 g of ai./ha, rated after three weeks vs untreated control, 0%=no effect, 100%=total destruction. How it is done: as §1, §2, §7, §8, §5, §6
The next series concerns Setaria. Nature of the series: Pre-emergence test (greenhouse). As to conditions: 1000 g of ai./ha, rated after three weeks vs untreated control, 0%=no effect, 100%=total destruction. In kind it is in vivo. How it is done:
as §1, §2, §7, §8, §5, §6

Series [11] relates to Alopecurus. Nature of the series: Pre-emergence test (greenhouse). Conditions: 1000 g of ai./ha, rated after three weeks vs untreated control, 0%=no effect, 100%=total destruction. Format: in vivo. How it is done: as §1, §2, §7, §8, §5, §6
Series [12] deals with Sinapis. Nature of the series: Pre-emergence test (greenhouse). Conditions: 1000 g of ai./ha, rated after three weeks vs untreated control, 0%=no effect, 100%=total destruction. Format: in vivo. How it is done: as §1, §2, §7, §8, §5, §6
The next series relates to Maize. In words: Pre-emergence test (greenhouse), crop plant. In kind it is in vivo. Conditions: 1000 g of ai./ha, rated after three weeks vs untreated control, 0%=no effect, 100%=total destruction. How it is done: as §1, §2, §7, §8, §5, §6

For orientation: melting point means the temperature of the solid-liquid transition. In turn, `CCC(COCc1ccccc1C)Nc1nc(NC(C)=O)nc(C(C)(C)F)n1` (racemic) [Example 2] displayed a melting point of 108 °C.

With `CCC(COCc1cccc(Cl)c1)Nc1nc(N)nc(C(C)(C)F)n1` (centres unmarked) [drawing 498], the “degree of damage to the plants, Abutilon” value in the series on Abutilon [1] amounted to 100%. Also, the “degree of damage to the plants, Galium” value in the series on Galium [2] is recorded as 95%. Moreover, the “degree of damage to the plants, Amaranthus” value (“degree of damage … Amaranthus” below) with Amaranthus [3] was 100%. For the same compound, the “degree of damage to the plants, Alopecurus” value (“degree of damage … Alopecurus” for short) in the series with Alopecurus [4] is reported as 100%. Also, in the series on Sinapis [5], the “degree of damage to the plants, Sinapis” value was determined as 100%.

`CCC(COCc1cccc(Cl)c1)Nc1nc(N)nc(C(C)(C)F)n1` (centres unmarked) [Example 14]: the melting point was 104 °C. Moreover, the action against weeds entry in the series with weeds [6] is “very strong action against weeds”. For the same compound, the action against weeds entry with weeds [7] is reported as “very strong action against weeds”.

`CCc1nc(N)nc(NC(CC)COCc2ccc(F)cc2)n1` (racemic) [Example 1, 2-amino-4-ethyl-6-[1-(4-fluorobenzyloxymethyl)-propylamino]-1,3,5-triazine] yielded a melting point of 96 °C.

`CCC(COCc1ccccc1)Nc1nc(N)nc(C(C)(C)F)n1` (centres unmarked) [drawing 495]: the “degree of damage to the plants, Abutilon” value in the series with Abutilon [8] came out at 100%. The “degree of damage to the plants, Galium” value in the series on Galium [9] is 100%. In addition, in the series on Amaranthus [10], the “degree of damage … Amaranthus” value turned out to be 100%. Moreover, the “degree of damage to the plants, Setaria” value in the series with Setaria was 100%. Also, in the series with Alopecurus [11], the “degree of damage … Alopecurus” value came out at 100%. Further, the “degree of damage to the plants, Sinapis” value in the series on Sinapis [12] amounted to 100%.

In turn, `CCC(COCc1ccccc1)Nc1nc(N)nc(C(C)(C)F)n1` (centres unmarked) [Example 8] returned a melting point of 114 °C. The action against weeds result in the series with weeds [6] was “very strong action against weeds”. In addition, the action against weeds entry with weeds [7] is recorded as “very strong action against weeds”.

`CCC(COCc1cccc(Cl)c1)Nc1nc(N)nc(C(C)(C)F)n1` (centres unmarked) [drawing 496]: in the series on Maize, the “degree of damage to the plants, Maize” value is recorded as 10%. Also, the “degree of damage to the plants, Abutilon” value with Abutilon [8] is listed as 95%. Moreover, the “degree of damage … Amaranthus” value in the series with Amaranthus [10] is recorded as 100%. The “degree of damage … Alopecurus” value with Alopecurus [11] was found to be 95%. The “degree of damage to the plants, Sinapis” value in the series on Sinapis [12] was 90%.

Take `CCC(COCc1ccccc1)Nc1nc(N)nc(C(C)(C)F)n1` (centres unmarked) [drawing 497]: the “degree of damage to the plants, Abutilon” value in the series on Abutilon [1] is 100%. Besides, the “degree of damage to the plants, Galium” value in the series with Galium [2] came to 90%. Also, in the series with Amaranthus [3], the “degree of damage … Amaranthus” value was 100%. Further, in the series with Alopecurus [4], the “degree of damage … Alopecurus” value was 95%. Further, the “degree of damage to the plants, Sinapis” value in the series with Sinapis [5] is recorded as 100%.
